We go through 56 compounds from ChEMBL document CHEMBL3272248, “beta-Adrenergic blocking agents. 18. 1-(Aryloxy)-3-(arylthioalkylamino)propan-2-ols and 1-substituted alkylthioamino-3-(aryloxy)propan-2-ols” (1978).

Calls of active or inactive are those of the source. The calls are words filed in the database; no cut-off is given here.

Test [1] concerns Felis catus. In words: In vivo inhibition of beta-1 adrenergic receptor in iv dosed cat assessed as inhibition of isoproterenol-induced trachycardia after 30 mins. It is filed as functional. As to conditions: 0.5 h.
In test [2] the test system is Felis catus. In words: In vivo inhibition of beta-2 adrenergic receptor in iv dosed cat assessed as inhibition of isoproterenol-induced vasodepressor response after 30 mins. It is filed as functional.
The test system of test [3] is Felis catus. In words: In vivo inhibition of beta-1 adrenergic receptor in cat assessed as inhibition of isoproterenol-induced trachycardia at 200 ug/kg/min, iv after 30 mins. It is filed as functional, organism-based.

As usually defined, the ED50 is the dose at which the effect has come halfway, by size or by number of responders.

`CCSCCNCC(O)COc1ccccc1C#N.O=C(O)C(=O)O` (stereo unspecified): the ED50 in the test on Felis catus [1] was 0.2 mg/kg.

`CCSCCCNCC(O)COc1ccccc1.O=C(O)C(=O)O` (stereo unspecified): the ED50 in the test on Felis catus [1] was 0.838 mg/kg. Moreover, the “inhibition (INH)” value in the test with Felis catus [2] is recorded as 14%.

As for `O=C(O)C(=O)O.[O-][S+](CCNCC(O)COc1ccccc1)Cc1ccccc1` (stereo unspecified), the ED50 in the test on Felis catus [1] amounted to 0.156 mg/kg. Also, the “inhibition (INH)” value in the test on Felis catus [2] is reported as 20%.

Regarding `CC(C)(C[S+]([O-])c1ccccc1)NCC(O)COc1ccccc1.O=C(O)C(=O)O` (stereo unspecified), in the test with Felis catus [1], the ED50 was found to be 0.185 mg/kg. The “inhibition (INH)” value with Felis catus [2] came out at 84%.

As for `O=C(O)C(=O)O.[O-][S+](CCCNCC(O)COc1ccccc1)C1CCCCC1` (stereo unspecified), in the test with Felis catus [1], the ED50 was determined as 0.162 mg/kg. In addition, the “inhibition (INH)” value with Felis catus [2] turned out to be 68%.

For the compound `Cc1ccccc1OCC(O)CNCCSCc1ccccc1` (stereo unspecified), the inhibition result with Felis catus [3] was “inactive”.

Regarding `COc1ccccc1SCCNCC(O)COc1ccccc1.O=C(O)C(=O)O` (stereo unspecified), the ED50 in the test on Felis catus [1] was found to be 0.482 mg/kg. For the same compound, in the test with Felis catus [2], the “inhibition (INH)” value was 24%.

Turning to `Cc1ccccc1OCC(O)CNCC[S+]([O-])c1ccccc1.O=C(O)C(=O)O` (stereo unspecified), in the test with Felis catus [1], the ED50 is 0.799 mg/kg. Moreover, the “inhibition (INH)” value with Felis catus [2] is given as 54%.

For `CC(CSc1ccccc1)NCC(O)COc1ccccc1Cl.O=C(O)C(=O)O` (stereo unspecified), the ED50 in the test on Felis catus [1] came out at 0.058 mg/kg. In addition, the “inhibition (INH)” value in the test on Felis catus [2] is 60%.

On to `Cc1ccccc1OCC(O)CNCCSc1ccccc1` (stereo unspecified), for which the ED50 with Felis catus [1] was 1.55 mg/kg. For the same compound, the “inhibition (INH)” value with Felis catus [2] is reported as 53%.

For `COc1ccc(OCC(O)CNCCSc2ccccc2)cc1` (stereo unspecified), the inhibition result in the test with Felis catus [3] is “inactive”.

As for `OC(CNCCSc1ccccc1)COc1ccccc1` (stereo unspecified), in the test with Felis catus [1], the ED50 is 0.138 mg/kg. For the same compound, the “inhibition (INH)” value with Felis catus [2] was determined as 13%.

Take `O=C(O)C(=O)O.OC(CNCCSCc1ccccc1)COc1ccccc1` (stereo unspecified): the ED50 with Felis catus [1] worked out at 0.207 mg/kg.

On to `OC(CNCCSCc1ccccc1)COc1ccccc1Cl` (stereo unspecified), for which, in the test with Felis catus [3], the inhibition entry is “inactive”.

Turning to `COc1ccccc1OCC(O)CNCCSc1ccccc1` (stereo unspecified), the inhibition result in the test with Felis catus [3] is “inactive”.

Take `CCC(C)(C)CSCCCNCC(O)COc1ccccc1.O=C(O)C(=O)O` (stereo unspecified): the ED50 with Felis catus [1] was determined as 0.083 mg/kg. In addition, in the test with Felis catus [2], the “inhibition (INH)” value is given as 0%.

Consider `Cc1ccccc1OCC(O)CNCCOc1ccc(C(N)=O)cc1` (stereo unspecified) [TOLAMOLOL], for which the “inhibition (INH)” value with Felis catus [2] came out at 81%.

For `CC(C)SCCCNCC(O)COc1ccccc1.O=C(O)C(=O)O` (stereo unspecified), in the test with Felis catus [1], the ED50 worked out at 0.333 mg/kg. For the same compound, the “inhibition (INH)” value with Felis catus [2] was 0%.

Turning to `CCSCCCNCC(O)COc1ccc(CC(N)=O)cc1` (stereo unspecified), the inhibition entry with Felis catus [3] was “inactive”.

Regarding `CCSCCCNCC(O)COc1ccccc1[N+](=O)[O-].O=C(O)C(=O)O` (stereo unspecified), the ED50 in the test on Felis catus [1] was 0.13 mg/kg. The “inhibition (INH)” value in the test on Felis catus [2] is reported as 12%.

Turning to `CCSCCNCC(O)COc1ccccc1.Cl` (stereo unspecified), the ED50 in the test on Felis catus [1] amounted to 0.332 mg/kg. In the test with Felis catus [2], the “inhibition (INH)” value came out at 0%.

`CC(CSc1ccccc1)NCC(O)COc1ccccc1.O=C(O)C(=O)O` (stereo unspecified): in the test with Felis catus [1], the ED50 amounted to 0.016 mg/kg. Further, in the test on Felis catus [2], the “inhibition (INH)” value is reported as 0%.

`OC(CNCCSc1ccc(Cl)cc1)COc1ccccc1` (stereo unspecified): in the test on Felis catus [3], the inhibition result was “inactive”.

For the compound `Cl.OC(CNCCSC1CCCCC1)COc1ccccc1` (stereo unspecified), in the test on Felis catus [1], the ED50 was 0.162 mg/kg. In the test with Felis catus [2], the “inhibition (INH)” value stood at 0%.

Consider `O=[N+]([O-])c1ccccc1OCC(O)CNCCSCc1ccccc1` (stereo unspecified), for which the ED50 in the test with Felis catus [1] turned out to be 0.946 mg/kg. Also, the “inhibition (INH)” value with Felis catus [2] was found to be 0%.

Take `CCCc1ccccc1OCC(O)CNCCCSCC` (stereo unspecified): the inhibition result in the test on Felis catus [3] is “inactive”.

Regarding `CC(C)(CSc1ccccc1)NCC(O)COc1ccccc1.O=C(O)C(=O)O` (stereo unspecified), the ED50 with Felis catus [1] was 0.065 mg/kg. Also, the “inhibition (INH)” value in the test on Felis catus [2] amounted to 40%.

For `CCSCCNCC(O)COc1ccccc1[N+](=O)[O-]` (stereo unspecified), in the test with Felis catus [3], the inhibition entry was “inactive”.

As to `CCSCCCNCC(O)COc1ccccc1OC.O=C(O)C(=O)O` (stereo unspecified), in the test with Felis catus [1], the ED50 amounted to 0.285 mg/kg. In the test on Felis catus [2], the “inhibition (INH)” value stood at 70%.

Regarding `O=C(O)C(=O)O.O=[N+]([O-])c1ccccc1OCC(O)CNCCCS(=O)(=O)C1CCCCC1` (stereo unspecified), the ED50 in the test on Felis catus [1] turned out to be 1.46 mg/kg. Besides, the “inhibition (INH)” value with Felis catus [2] is reported as 75%.

`O=[N+]([O-])c1ccccc1OCC(O)CNCCCSC1CCCCC1` (stereo unspecified): the inhibition entry in the test on Felis catus [3] is “inactive”.

Consider `CCSCCCNCC(O)COc1ccccc1Cl` (stereo unspecified), for which, in the test with Felis catus [1], the ED50 came out at 0.269 mg/kg. In addition, the “inhibition (INH)” value with Felis catus [2] is listed as 52%.

For `C=CCc1ccccc1OCC(O)CNCCCSCC.O=C(O)C(=O)O` (stereo unspecified), the ED50 with Felis catus [1] turned out to be 0.72 mg/kg. Further, the “inhibition (INH)” value in the test on Felis catus [2] is given as 65%.

Consider `CCSCCCNCC(O)COc1ccccc1Br.O=C(O)C(=O)O` (stereo unspecified), for which the ED50 with Felis catus [1] was determined as 0.212 mg/kg. Moreover, the “inhibition (INH)” value with Felis catus [2] was 0%.

Consider `Cc1ccc([S+]([O-])CCNCC(O)COc2ccccc2)cc1` (stereo unspecified), for which the ED50 in the test on Felis catus [1] is 0.121 mg/kg. Besides, in the test with Felis catus [2], the “inhibition (INH)” value amounted to 13%.

`CCSCCCNCC(O)COc1ccc(NC(C)=O)cc1` (stereo unspecified): the inhibition result with Felis catus [3] is “inactive”.

`Cc1ccc(SCCCNCC(O)COc2ccccc2)cc1.Cl` (stereo unspecified): in the test with Felis catus [1], the ED50 came to 1.26 mg/kg. Also, the “inhibition (INH)” value in the test on Felis catus [2] is given as 11%.

Regarding `Cc1ccccc1OCC(O)CNCCCSc1ccccc1` (stereo unspecified), the inhibition result in the test with Felis catus [3] was “inactive”.

Regarding `Cc1ccc(SCCNCC(O)COc2ccccc2)cc1` (stereo unspecified), the ED50 in the test on Felis catus [1] was 0.289 mg/kg. For the same compound, in the test with Felis catus [2], the “inhibition (INH)” value stood at 43%.

Regarding `Cl.OC(CNCCCSc1ccccc1)COc1ccccc1` (stereo unspecified), in the test on Felis catus [1], the 50% effective dose (ED50) stood at 0.415 mg/kg.

Turning to `O=C(O)C(=O)O.OC(CNCCCSC1CCCCC1)COc1ccccc1` (stereo unspecified), the ED50 in the test on Felis catus [1] was determined as 0.781 mg/kg. For the same compound, the “inhibition (INH)” value with Felis catus [2] stood at 37%.

For `[O-][S+](CCNCC(O)COc1ccccc1)c1ccccc1` (stereo unspecified), in the test on Felis catus [1], the ED50 stood at 0.044 mg/kg. In the test with Felis catus [2], the “inhibition (INH)” value was 0%.

For `O=C(O)C(=O)O.OC(CNCCSc1ccccc1)COc1ccccc1Cl` (stereo unspecified), the ED50 in the test with Felis catus [1] came to 1.46 mg/kg. For the same compound, the “inhibition (INH)” value in the test on Felis catus [2] turned out to be 0%.

Turning to `CCSCCCNCC(O)COc1ccc(OC)cc1` (stereo unspecified), the inhibition result in the test with Felis catus [3] was “inactive”.

Turning to `Cc1ccc(SCCCNCC(O)COc2ccccc2[N+](=O)[O-])cc1` (stereo unspecified), in the test on Felis catus [3], the inhibition result was “inactive”.

With `N#Cc1ccccc1OCC(O)CNCCSc1ccccc1` (stereo unspecified), the inhibition entry in the test on Felis catus [3] was “inactive”.

With `CCSCCCNCC(O)COc1ccc([N+](=O)[O-])cc1` (stereo unspecified), in the test with Felis catus [3], the inhibition entry was “inactive”.

On to `[O-][S+](CCNCC(O)COc1ccccc1)c1ccc(Cl)cc1` (stereo unspecified), for which the ED50 in the test on Felis catus [1] was found to be 0.08 mg/kg. The “inhibition (INH)” value in the test with Felis catus [2] stood at 0%.

`O=C(O)C(=O)O.O=[N+]([O-])c1ccccc1OCC(O)CNCCSC1CCCCC1` (stereo unspecified): the ED50 in the test with Felis catus [1] is 0.427 mg/kg. Also, the “inhibition (INH)” value with Felis catus [2] was determined as 37%.

Regarding `O=S(=O)(CCNCC(O)COc1ccccc1)c1ccccc1` (stereo unspecified), the ED50 in the test on Felis catus [1] is 1.33 mg/kg. In the test with Felis catus [2], the “inhibition (INH)” value is listed as 53%.

As to `O=[N+]([O-])c1ccccc1OCC(O)CNCCC[S+]([O-])C1CCCCC1` (stereo unspecified), the inhibition result in the test with Felis catus [3] is “inactive”.

As to `CCSCCCNCC(O)COc1ccccc1C#N.O=C(O)C(=O)O` (stereo unspecified), in the test on Felis catus [1], the ED50 amounted to 0.135 mg/kg. In the test on Felis catus [2], the “inhibition (INH)” value is on record as 0%.

Regarding `CC(CNCC(O)COc1ccccc1)Sc1ccccc1.O=C(O)C(=O)O` (stereo unspecified), in the test with Felis catus [1], the ED50 stood at 0.559 mg/kg. In the test on Felis catus [2], the “inhibition (INH)” value was 18%.

For the compound `CC[S+]([O-])CCNCC(O)COc1ccccc1.O=C(O)C(=O)O` (stereo unspecified), the ED50 with Felis catus [1] is 0.195 mg/kg. Besides, the “inhibition (INH)” value in the test with Felis catus [2] was found to be 10%.

As to `Cc1cccc(OCC(O)CNCCSc2ccccc2)c1` (stereo unspecified), in the test on Felis catus [3], the inhibition result is “inactive”.

Take `CC(NCC(O)COc1ccccc1)C(C)Sc1ccccc1.O=C(O)C(=O)O` (stereo unspecified): the ED50 with Felis catus [1] turned out to be 0.195 mg/kg. Also, the “inhibition (INH)” value in the test on Felis catus [2] came to 32%.
